Activity calls are given as the source filed them. The calls are words filed in the database; no cut-off is given here.
Legend:
Type in all cases: functional, tissue-based
Cannabinoid receptor 1 = Cannabinoid receptor 1 (Rattus norvegicus, UniProt P20272); experiment: Potency at CB1 receptor in rat brain by [35S]GTP-gamma-S binding assay
[1] = target: Cannabinoid receptor 1 (Rattus norvegicus) (UniProt P20272); experiment: Efficacy at CB1 receptor in rat brain by [35S]GTPgammaS binding assay (basal value set at 100%)
Cannabinoid receptor 1 (Rattus norvegicus), sequence (P20272 whole entry): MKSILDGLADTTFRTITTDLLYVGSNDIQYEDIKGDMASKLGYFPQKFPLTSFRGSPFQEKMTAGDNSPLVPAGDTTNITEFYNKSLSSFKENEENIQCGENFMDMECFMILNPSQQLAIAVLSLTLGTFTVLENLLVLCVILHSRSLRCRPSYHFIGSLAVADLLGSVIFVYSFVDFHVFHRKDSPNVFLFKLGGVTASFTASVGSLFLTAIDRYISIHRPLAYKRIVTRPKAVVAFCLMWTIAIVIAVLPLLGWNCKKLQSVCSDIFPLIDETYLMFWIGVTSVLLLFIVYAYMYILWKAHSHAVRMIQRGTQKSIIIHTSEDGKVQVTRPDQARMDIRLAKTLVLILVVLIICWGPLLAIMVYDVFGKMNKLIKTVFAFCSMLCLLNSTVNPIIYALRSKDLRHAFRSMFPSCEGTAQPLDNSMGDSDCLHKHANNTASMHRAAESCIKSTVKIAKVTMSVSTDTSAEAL

[2] = target: Cannabinoid receptor 1 (Rattus norvegicus) (UniProt P20272); experiment: Efficacy at CB1 receptor in rat brain by [35S]GTP-gamma-S binding assay at 0.1 mM (basal value set at 100%)
[3] = target: Cannabinoid receptor 1 (Rattus norvegicus) (UniProt P20272); experiment: Potency at CB1 receptor in rat brain by [35S]GTP-gamma-S binding assay at 0.1 mM

Cannabinoid receptor 1, sequence (P20272 whole entry): as above

## CCCCC/C=C\C/C=C\C/C=C\C/C=C\CC[C@H](C)C(=O)OC(CO)CO
Cannabinoid receptor 1
  EC50: 15.8 µM
[1]
  Emax: 227%

## CCCCC/C=C\C/C=C\C/C=C\C/C=C\CC[C@@H](C)C(=O)OC(CO)CF (mixture of isomers)
Cannabinoid receptor 1
  EC50: 15.8 µM
[1]
  Emax: 168%

## CCCCC/C=C\C/C=C\C/C=C\C/C=C\CC[C@@H](C)C(=O)OC(CF)CF
[2]
  Emax: inactive
[3]
  Log EC50: inactive

## CCCCC/C=C\C/C=C\C/C=C\C/C=C\CCCC(=O)OC(CO)CO
[1]
  Emax: 620%

## CCCCC/C=C\C/C=C\C/C=C\C/C=C\CC[C@@H](C)C(=O)OC(CO)CO
Cannabinoid receptor 1
  EC50: 10 µM
[1]
  Emax: 407%
